Type in all cases: in vitro ADME
One data set deals with T1, CYP2E1 (Homo sapiens, UniProt P05181).
T1 construct: purchased Corning Life Sciences (Woburn, MA, USA)
Description: Incubation with human cDNA-expressed CYP2E1. The settings on record: CYP2E1, 30 min at 37 °C with NADPH; ETN101 10 μM or M1 1 μM. On the procedure:
(§1) ETN101 or M1 was incubated with nine human cDNA-expressed CYP enzymes (1A2, 2A6, 2B6, 2C8, 2C9, 2C19, 2D6, 2E1, and 3A4) to identify the CYPs involved in the metabolism of ETN101. Based on the preliminary study, the incubation conditions were determined as follows: Briefly, reaction mixtures of 50 μL containing ETN101 (final concentration: 10 μM) or M1 (final concentration: 1 μM), and CYPs (final amount: 5 pmol for CYP1A2, 2A6, 2C8, 2C9, 2C19, 2D6, and 3A4; 10 pmol for CYP2B6 and 2E1) were prepared in 0.1 M potassium phosphate buffer. The reaction was initiated by adding 50 μL of NADPH- regenerating system; the mixtures were incubated for 0 min or 30 min at 37 °C in triplicate. Reactions were terminated by the addition of 100 μL of ice-cold acetonitrile containing the IS (camptothecin, 200 ng/mL). Samples were centrifuged at 13,000 rpm for 5 min at 4 °C. An aliquot of 2 μL supernatant was injected in LC–MS/MS system.
(§2) For enzyme characterization, an Agilent 6460 triple quadrupole mass spectrometer coupled with a 1260 HPLC system (Agilent Technologies, Santa Clara, CA, USA) and a Kinetex Halo® C18 column (2.7 μm, 2.1 × 50 mm, Advanced Material Technology, Wilmington, DE, USA) were used for chromatographic separation. […] ETN101, M1, and M2 were detected via MRM using ESI in the positive mode. […]

The next data set concerns the target T2, CES1c (Homo sapiens, UniProt P23141).
T2 construct: purchased Corning Life Sciences (Woburn, MA, USA)
T2 sequence (P23141 18-566 isoform P23141-3 limits assumed): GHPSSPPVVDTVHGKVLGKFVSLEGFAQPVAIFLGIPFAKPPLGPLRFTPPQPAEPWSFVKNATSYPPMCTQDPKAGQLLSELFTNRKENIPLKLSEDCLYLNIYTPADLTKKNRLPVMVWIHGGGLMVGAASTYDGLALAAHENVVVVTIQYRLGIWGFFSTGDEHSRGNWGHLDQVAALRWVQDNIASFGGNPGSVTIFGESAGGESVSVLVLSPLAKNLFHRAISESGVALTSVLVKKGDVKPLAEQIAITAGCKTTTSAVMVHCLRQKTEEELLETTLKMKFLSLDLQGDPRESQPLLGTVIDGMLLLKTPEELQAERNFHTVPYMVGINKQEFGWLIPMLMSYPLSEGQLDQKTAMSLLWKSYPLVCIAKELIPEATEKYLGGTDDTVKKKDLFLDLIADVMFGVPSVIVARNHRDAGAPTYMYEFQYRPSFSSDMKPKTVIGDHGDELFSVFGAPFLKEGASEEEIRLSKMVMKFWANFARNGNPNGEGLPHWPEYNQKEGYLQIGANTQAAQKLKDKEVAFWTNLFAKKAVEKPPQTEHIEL
Description: Incubation with human recombinant CES1c. The settings on record: 60 min at 37 °C, ETN101 10 μM or M1 1 μM. On the procedure:
To screen for CES enzymes responsible for the hydrolysis of ETN101 or M1, 50 μL of reaction mixtures containing human cDNA-expressed CES enzymes (CES1b, CES1c, and CES2) at the concentration of 1 mg/mL, 10 μM ETN101, or 1 μM M1 in 0.1 M potassium phosphate buffer were incubated at 37 °C for 0 min or 60 min in triplicate. The reactions were quenched by adding 50 μL of ice-cold acetonitrile containing the internal standard (camptothecin, 10 μg/mL). Following centrifugation at 13,000 rpm for 5 min, a 2 μL aliquot of the supernatant was injected into the LC-MS/MS system. The reliability of the analysis was confirmed by incorporating three different levels of quality control samples at the beginning and end of each analytical batch.
For enzyme characterization, an Agilent 6460 triple quadrupole mass spectrometer coupled with a 1260 HPLC system (Agilent Technologies, Santa Clara, CA, USA) and a Kinetex Halo® C18 column (2.7 μm, 2.1 × 50 mm, Advanced Material Technology, Wilmington, DE, USA) were used for chromatographic separation. The mobile phases comprised 0.1% (v/v) formic acid in water (mobile phase A) and 0.1% formic acid (v/v) in acetonitrile (mobile phase B). […] ETN101, M1, and M2 were detected via MRM using ESI in the positive mode. […]

The target of a further data set is T3, CYP1A2 (Homo sapiens, UniProt P05177).
T3 construct: purchased Cypex Ltd. (Dundee, UK)
T3 sequence (P05177 1-516): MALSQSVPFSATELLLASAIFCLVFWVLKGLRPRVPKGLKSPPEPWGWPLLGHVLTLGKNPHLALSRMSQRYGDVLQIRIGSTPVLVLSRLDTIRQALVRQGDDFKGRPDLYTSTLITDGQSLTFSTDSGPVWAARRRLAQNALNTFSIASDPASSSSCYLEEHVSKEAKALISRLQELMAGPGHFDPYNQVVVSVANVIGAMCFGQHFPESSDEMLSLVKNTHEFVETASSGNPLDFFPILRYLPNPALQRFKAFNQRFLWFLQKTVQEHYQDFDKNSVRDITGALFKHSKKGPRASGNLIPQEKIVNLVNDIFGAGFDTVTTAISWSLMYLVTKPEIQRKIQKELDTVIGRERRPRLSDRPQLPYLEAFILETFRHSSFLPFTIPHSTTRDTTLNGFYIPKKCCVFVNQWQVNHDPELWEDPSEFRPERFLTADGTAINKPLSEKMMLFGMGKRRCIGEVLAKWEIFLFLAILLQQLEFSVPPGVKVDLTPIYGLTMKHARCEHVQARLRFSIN
Description: Incubation with human cDNA-expressed CYP1A2. Particulars: CYP1A2, 30 min at 37 °C with NADPH; ETN101 10 μM or M1 1 μM. On the procedure: as §1, §2

T1 sequence (P05181 whole entry): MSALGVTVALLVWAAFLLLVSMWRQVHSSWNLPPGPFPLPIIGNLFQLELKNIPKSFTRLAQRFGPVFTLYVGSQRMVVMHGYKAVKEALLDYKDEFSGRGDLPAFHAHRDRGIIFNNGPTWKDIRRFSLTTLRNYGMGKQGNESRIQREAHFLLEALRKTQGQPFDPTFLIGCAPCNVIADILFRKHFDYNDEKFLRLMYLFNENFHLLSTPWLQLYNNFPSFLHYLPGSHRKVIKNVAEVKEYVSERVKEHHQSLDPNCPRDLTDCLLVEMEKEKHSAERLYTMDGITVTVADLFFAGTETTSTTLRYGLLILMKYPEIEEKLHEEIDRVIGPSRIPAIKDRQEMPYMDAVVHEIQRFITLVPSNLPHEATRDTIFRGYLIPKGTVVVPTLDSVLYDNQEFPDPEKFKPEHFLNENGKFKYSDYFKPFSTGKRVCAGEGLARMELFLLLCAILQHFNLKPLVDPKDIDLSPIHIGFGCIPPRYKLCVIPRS

On to `NCC(N)C(=O)Nc1ccc(-c2nc3ccccc3s2)cc1` (stereo not drawn) [ETN101, 2,3-diamino-N-(4-(benzo[d]thiazol-2-yl)phenyl)propanamide], for which the Percentage remaining on CYP2E1 is given as 81.1%; on CES1c it was 107.3%; on CYP1A2, 126.3%.
For `Nc1ccc(-c2nc3ccccc3s2)cc1` [M1, 2-(4-aminophenyl)benzothiazole], in that order: 97.3%, 122.7% and 5.3%.

The record behind these values is PMC11356571, “The Comparative Metabolism of a Novel Hepatocellular Carcinoma Therapeutic Agent, 2,3-Diamino-N-(4-(benzo[d]thiazol-2-yl)phenyl)propanamide, in Human and Animal Hepatocytes” (Metabolites, 2024).
